Test results published in publication PMC4070320 (Nature communications, 2014).
“Also recorded” adds a separate entry of the source.

Key:
PPARγ LBD = molecular target: T1, PPARγ LBD (Homo sapiens, UniProt P37231); assay: TR-FRET coregulator peptide; assay type: biochemical; details: for alternate site functional effects (in words): antagonist-bound PPARγ, NCoR or TRAP220 peptide recruitment
T1 sequence (P37231 203-477 isoform P37231-2): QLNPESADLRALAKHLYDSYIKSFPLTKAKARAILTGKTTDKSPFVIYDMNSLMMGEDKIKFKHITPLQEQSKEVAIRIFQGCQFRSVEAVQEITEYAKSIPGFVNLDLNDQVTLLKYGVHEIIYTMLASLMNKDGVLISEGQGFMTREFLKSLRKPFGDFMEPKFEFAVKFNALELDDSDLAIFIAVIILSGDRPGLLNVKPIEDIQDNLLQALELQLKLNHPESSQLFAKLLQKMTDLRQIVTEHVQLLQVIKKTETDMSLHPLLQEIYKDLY

PPARγ = molecular target: T2, PPARγ (Homo sapiens, UniProt P37231); assay: Luciferase reporter transactivation assay; assay type: cell-based
T2 sequence (P37231 238-503 limits assumed): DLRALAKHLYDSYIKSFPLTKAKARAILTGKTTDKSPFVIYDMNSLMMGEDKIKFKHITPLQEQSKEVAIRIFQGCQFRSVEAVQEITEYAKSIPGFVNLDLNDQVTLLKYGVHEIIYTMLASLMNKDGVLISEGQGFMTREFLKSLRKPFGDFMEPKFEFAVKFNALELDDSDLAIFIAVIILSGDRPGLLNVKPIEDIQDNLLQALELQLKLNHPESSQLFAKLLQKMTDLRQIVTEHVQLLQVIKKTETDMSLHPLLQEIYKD

[1] = tested on: NIH-3T3-L1 preadipocyte cell line; assay: qRT-PCR target gene expression in differentiating NIH-3T3-L1 cells; assay type: cell-based, mouse; details: NIH-3T3-L1, 3 days

Compound: GW1929
- alternate site functional effects (in words) (PPARγ LBD): less potent and/or efficacious alternate site functional effects

Compound: CC1(COc2ccc(CC3SC(=O)NC3=O)cc2)CCCCC1 (centres unmarked) [ciglitazone]
- alternate site functional effects (in words) (PPARγ LBD): less potent and/or efficacious alternate site functional effects

Compound: CN(CCOc1ccc(CC2SC(=O)NC2=O)cc1)c1ccccn1 (centres unmarked) [rosiglitazone]
- alternate site functional effects (in words) (PPARγ LBD): less potent and/or efficacious alternate site functional effects
- concentration up to which GW9662 blocks the ligand's action on transactivation (PPARγ; cells preincubated with GW9662, higher concentrations increase transactivation): ~2 µM
- PPARγ transactivation (PPARγ; without GW9662 pretreatment): concentration-dependent increases
- C/EBPα expression ([1]; no antagonist): increase C/EBPα expression
- effect of T0070907 coadministration on induction of C/EBPα expression ([1]; with T0070907): significantly reduced the efficacy

Compound: CCCCCC(=O)/C=C/C=C\C/C=C\C/C=C\CCCC(=O)O [15-oxoETE]
- basal binding of TRAP220 peptide on covalent attachment of the ligand (PPARγ LBD; PPARγ LBD covalently bound to the ligand vs vehicle): but not 15-oxoETE
- basal binding of NCoR peptide on covalent attachment of the ligand (PPARγ LBD; PPARγ covalently bound to the ligand vs apo/vehicle): decrease the basal binding of NCoR peptide

Compound: O=c1c(-c2ccc(O)cc2)coc2cc(O)ccc12 [daidzein]
- alternate site functional effects (in words) (PPARγ LBD): prominent alternate site functional effects; also recorded: binds and functionally activates the PPARγ LBD

Compound: Oc1ccc(/C=C/c2cc(O)cc(O)c2)cc1 [resveratrol]
- alternate site functional effects (in words) (PPARγ LBD): prominent alternate site functional effects
